Series [1] relates to alkaline phosphatase activity in T47D cells. Put plainly: Effects of progestins and antiprogestins on alkaline phosphatase activity in T47D cells (antagonist mode). The class given is cell-based. The settings on record: Homo sapiens, in the presence of 1 nM progesterone, read-out: T47D Alkaline Phosphatase Activity IC50 (nM) or % inhibition; for inhibition at 3 µM: % inhibition at 3000 nM; for IC50: 24 h. The method, then:
(1) Effects of Progestins and Antiprogestins on Alkaline Phosphatase Activity in T47D Cells
PURPOSE: To identify progestins or antiprogestins by determining a compound's effect on alkaline phosphatase activity in T47D cells.
Culture Medium: • DMEM:F12 (1:1) (GIBCO, BRL) supplemented with 5% (v/v) charcoal stripped fetal bovine serum (not heat-inactivated), 100 U/mL penicillin, 100 μg/mL streptomycin, and 2 mM the GlutaMax™ reagent (GIBCO, BRL).
Alkaline Phosphatase Assay Buffer: • I. 0.1M Tris-HCl, pH 9.8, containing 0.2% the Triton® X-100 reagent • II. 0.1M Tris-HCl, pH 9.8, containing 4 mM p-nitrophenyl phosphate (Sigma). B. Cell Culture and Treatment:
Frozen T47D cells were thawed in a 37° C. water bath and diluted to 280,000 cells/mL in culture medium. To each well in a 96-well plate (Falcon, Becton Dickinson Labware), 180 μL of diluted cell suspension was added.
Twenty μL of reference or test compounds diluted in the culture medium was then added to each well. When testing for progestin antagonist activity, reference antiprogestins or test compounds were added in the presence of 1 nM progesterone. The cells were incubated at 37° C. in a 5% CO2/humidified atmosphere for 24 h.
NOTE: For high throughput screening, one concentration of each compound was tested at 0.3 μg/mL. Based on an average molecular weight of 300 g/mol for the compounds in the library, the concentration was approximately 1 μM. Subsequently, active compounds were tested in dose response assays to determine EC50 and IC50. C. Alkaline Phosphatase Enzyme Assay:
At the end of treatment, the medium was removed from the plate. Fifty μL of assay buffer I was added to each well. The plates were shaken in a titer plate shaker for 15 min. Then 150 μL of assay buffer II was added to each well. Optical density measurements were taken at 5 min intervals for 30 min at a test wavelength of 405 nm.
For reference and test compounds, a dose response curve was generated for dose (X-axis) vs. the rate of enzyme reaction (slope) (Y-axis). Square root-transformed data was used for analysis of variance and nonlinear dose response curve fitting for both agonist and antagonist modes. Huber weighting was used to down-weight the effects of outliers. EC50 or IC50 values were calculated from the retransformed values. JMP software (SAS Institute, Inc.) was used for both one-way analysis of variance and non-linear dose response analysis in both single dose and dose response studies.
Progesterone and trimegestone were reference progestins and RU486 was the reference antiprogestin. All reference compounds were run in full dose response curves and the EC50 and IC50 values were calculated.

As to `C[C@@H]1COC(=O)N1c1nc(-c2cccc(C#N)c2)cs1` [Example 17, 3-{2-[(4R)-4-Methyl-2-oxo-1,3-oxazolidin-3-yl]-1,3-thiazol-4-yl}benzonitrile], the melting point was 187 to 189 °C. For the same molecule, in series [1], the inhibition at 3 µM was determined as 84%.

`CC1(C)COC(=O)N1c1nc(-c2cccc(Br)c2)cs1` [Example 18, 3-[4-(3-Bromophenyl)-1,3-thiazol-2-yl]-4,4-dimethyl-1,3-oxazolidin-2-one]: the melting point lay within 142 to 144 °C. The half-maximal inhibitory concentration (IC50) in series [1] turned out to be 30 nM.

`CCC1(CC)COC(=O)N1c1nc(-c2ccc(C#N)cc2)cs1` [Example 19, 4-[2-(4,4-Diethyl-2-oxo-1,3-oxazolidin-3-yl)-1,3-thiazol-4-yl]benzonitrile] registered a melting point of 145 to 147 °C. Moreover, the half-inhibitory concentration (IC50) in series [1] is 0.45 nM.

As to `CCC[C@@H]1COC(=O)N1c1nc(-c2ccc(Br)cc2)cs1` [Example 20, (4R)-3-[4-(4-Bromophenyl)-1,3-thiazol-2-yl]-4-propyl-1,3-oxazolidin-2-one], the melting point fell in the range of 114 to 116 °C. Moreover, the IC50 in series [1] came to 70.2 nM.

Consider `CCC[C@@H]1COC(=O)N1c1nc(-c2ccc(C#N)cc2)cs1` [Example 21, 4-{2-[(4R)-2-oxo-4-propyl-1,3-oxazolidin-3-yl]-1,3-thiazol-4-yl}benzonitrile], for which the melting point lay in the range of 131 to 133 °C. For the same molecule, the IC50 in series [1] was found to be 22.5 nM.

Molecule `CCC[C@H]1COC(=O)N1c1nc(-c2ccc(Br)cc2)cs1` [Example 22, (4S)-3-[4-(4-Bromophenyl)-1,3-thiazol-2-yl]-4-propyl-1,3-oxazolidin-2-one] gave a melting point of 116 to 118 °C. Also, the IC50 in series [1] is 64.3 nM.

With `O=C1OCC2(CC2)N1c1nc(-c2ccc(Br)cc2)cs1` [Example 24, 4-[4-(4-Bromophenyl)-1,3-thiazol-2-yl]-6-oxa-4-azaspiro[2.4]heptane-5-one], the melting point lay in the range of 201 to 202 °C. Besides, in series [1], the 50% inhibitory concentration (IC50) is 292 nM.

For `N#Cc1ccc(-c2csc(N3C(=O)OCC34CC4)n2)cc1` [Example 25, 4-[2-(5-oxo-6-oxa-4-azaspiro[2.4]hept-4-yl)-1,3-thiazol-4-yl]benzonitrile], the melting point was 219 to 221 °C. Moreover, the half-maximal inhibitory concentration (IC50) in series [1] amounted to 21.6 nM.

For the molecule `O=C1OCCN1c1nc(-c2ccc(Br)cc2)cs1` [Example 28, 3-[4-(4-Bromophenyl)-1,3-thiazol-2-yl]-1,3-oxazolidin-2-one], the melting point fell in the range of 197 to 199 °C. Also, the IC50 in series [1] came out at 158 nM.

As to `CCCC1COC(=O)N1c1nc(-c2ccc(Br)cc2)cs1` (centres unmarked) [Example 29, 3-[4-(4-Bromophenyl)-1,3-thiazol-2-yl]-4-propyl-1,3-oxazolidin-2-one], the melting point lay within 156 to 157 °C. Further, the IC50 in series [1] came to 88.8 nM.

As for `CCCCC1COC(=O)N1c1nc(-c2ccc(Br)cc2)cs1` (centres unmarked) [Example 30, 3-[4-(4-Bromophenyl)-1,3-thiazol-2-yl]-4-butyl-1,3-oxazolidin-2-one], the melting point was in the range of 153 to 155 °C. In addition, in series [1], the inhibition at 3 µM was 100%.

For `CC1CN(c2nc(-c3ccc(Br)cc3)cs2)C(=O)O1` (centres unmarked) [Example 31, 3-[4-(4-Bromophenyl)-1,3-thiazol-2-yl]-5-methyl-1,3-oxazolidin-2-one], the melting point fell in the range of 191 to 193 °C. The half-maximal inhibitory concentration (IC50) in series [1] is 68.8 nM.

The molecule `CCC1CN(c2nc(-c3ccc(Br)cc3)cs2)C(=O)O1` (centres unmarked) [Example 32, 3-[4-(4-Bromophenyl)-1,3-thiazol-2-yl]-5-ethyl-1,3-oxazolidin-2-one] had a melting point of 141 to 142 °C. Moreover, the IC50 in series [1] was determined as 407 nM.

Molecule `O=C1OCCCN1c1nc(-c2ccc(Br)cc2)cs1` [Example 33, 3-[4-(4-Bromophenyl)-1,3-thiazol-2-yl]-1,3-oxazinan-2-one] displayed a melting point of 225 to 227 °C. For the same molecule, the concentration for half-maximal inhibition (IC50) in series [1] worked out at 238 nM.

`CC1(C)COC(=O)N(c2nc(-c3ccc(Br)cc3)cs2)C1` [Example 39, 3-[4-(4-Bromophenyl)-1,3-thiazol-2-yl]-5,5-dimethyl-1,3-oxazinan-2-one] came in with a melting point of 169 to 171 °C. Besides, the IC50 in series [1] turned out to be 1370 nM.

In the case of `CC(C)C1COC(=O)N1c1nc(-c2ccc(C#N)cc2)cs1` (centres unmarked) [Example 43, 4-[2-(4-Isopropyl-2-oxo-1,3-oxazolidin-3-yl)-1,3-thiazol-4-yl]benzonitrile], the melting point lay in the range of 126 to 128 °C. The IC50 in series [1] turned out to be 21.9 nM.

Regarding `N#Cc1ccc(-c2csc(N3C(=O)OC[C@H]3Cc3ccccc3)n2)cc1` [Example 44, 4-{2-[(4R)-4-Benzyl-2-oxo-1,3-oxazolidin-3-yl]-1,3-thiazol-4-yl}benzonitrile], the melting point was 174 to 176 °C. Moreover, the IC50 in series [1] was determined as 191 nM.

The molecule `N#Cc1ccc(-c2csc(N3C(=O)OC[C@H]3c3ccccc3)n2)cc1` [Example 45, 4-{2-[(4R)-2-Oxo-4-phenyl-1,3-oxazolidin-3-yl]-1,3-thiazol-4-yl}benzonitrile] returned a melting point of 243 to 245 °C. In addition, the 50% inhibitory concentration (IC50) in series [1] stood at 166 nM.

Molecule `N#Cc1ccc(-c2csc(N3C(=O)OC[C@@H]3c3ccccc3)n2)cc1` [Example 46, 4-{2-[(4S)-2-Oxo-4-phenyl-1,3-oxazolidin-3-yl]-1,3-thiazol-4-yl}benzonitrile] registered a melting point of 242 to 244 °C. The IC50 in series [1] was found to be 194 nM.

Consider `N#Cc1ccc(-c2csc(N3C(=O)OCC34CCCC4)n2)cc1` [Example 47, 4-[2-(2-Oxo-3-oxa-1-azaspiro[4.4]non-1-yl)-1,3-thiazol-4-yl]benzonitrile], for which the melting point lay within 196 to 198 °C. For the same molecule, the IC50 in series [1] came to 45.4 nM.

For `CC1(C)COC(=O)N1c1nc(-c2cccc(C#N)c2)cs1` [Example 52, 3-[2-(4,4-dimethyl-2-oxo-1,3-oxazolidin-3-yl)-1,3-thiazol-4-yl]benzonitrile], the melting point was 181 to 183 °C. Besides, the inhibition at 3 µM in series [1] amounted to 95%.

In turn, `CCC1(CC)COC(=O)N1c1nc(-c2ccc(C#N)cc2)c(F)s1` [Example 53, 4-[2-(4,4-Diethyl-2-oxo-1,3-oxazolidin-3-yl)-5-fluoro-1,3-thiazol-4-yl]benzonitrile] had a melting point of 151 to 153 °C. Moreover, the inhibition at 0.003 µM in series [1] (% inhibition at 3 nM) turned out to be 40%.

Turning to `N#Cc1ccc(-c2csc(-n3c(=O)oc4ccccc43)n2)cc1` [Example 54, 4-[2-(2-Oxo-1,3-benzoxazol-3(2H)-yl)-1,3-thiazol-4-yl]benzonitrile], the melting point lay within 244 to 245 °C. For the same molecule, the inhibition at 3 µM in series [1] amounted to 50%.

`N#Cc1ccc(-c2nc(N3C(=O)OCC34CC4)sc2F)cc1` [Example 55, 4-[5-Fluoro-2-(5-oxo-6-oxa-4-azaspiro[2.4]hept-4-yl)-1,3-thiazol-4-yl]benzonitrile] showed a melting point of 222 to 224 °C. Moreover, the 50% inhibitory concentration (IC50) in series [1] was found to be 41.9 nM.

`Cc1sc(N2C(=O)OCC2(C)C)nc1-c1ccc(Br)cc1` [Example 56, 3-[4-(4-Bromophenyl)-5-methyl-1,3-thiazol-2-yl]-4,4-dimethyl-1,3-oxazolidin-2-one] had a melting point of 175 to 176.5 °C. Further, the half-inhibitory concentration (IC50) in series [1] was 437 nM.

For `Cc1sc(N2C(=O)OCC2(C)C)nc1-c1ccc(C#N)cc1` [Example 57, 4-[2-(4,4-Dimethyl-2-oxo-1,3-oxazolidin-3-yl)-5-methyl-1,3-thiazol-4-yl]benzonitrile], the melting point is 192.5 to 193 °C. Besides, the IC50 in series [1] was determined as 101 nM.

`CC1(C)COC(=O)N1c1nc(-c2sc(C#N)cc2Br)cs1` [Example 59, 4-Bromo-5-[2-(4,4-dimethyl-2-oxo-1,3-oxazolidin-3-yl)-1,3-thiazol-4-yl]thiophene-2-carbonitrile] had a melting point of 230 to 234 °C. Moreover, the IC50 in series [1] came out at 99 nM.

Turning to `CC1(C)COC(=O)N1c1nc(-c2ccc(C#N)s2)cs1` [Example 60, 5-[2-(4,4-dimethyl-2-oxo-1,3-oxazolidin-3-yl)-1,3-thiazol-4-yl]thiophene-2-carbonitrile], the melting point fell in the range of 250 to 251 °C. Also, the half-maximal inhibitory concentration (IC50) in series [1] was 43.5 nM.
